MIC data for 19 compounds are collected here from patent publication US9850256B2, “Antibacterial basic biaromatic derivatives with aminoalkoxy substitution” (priority 2014, dated 2017).

Usually MIC stands for the least concentration at which growth counts as inhibited. Higher therefore signals weaker potency.

What all share (experiment): Bacterial growth minimal inhibitory concentration (microdilution, cation-adjusted Mueller-Hinton Broth)
In general terms: Broth dilution looks for growth in wells or tubes with falling amounts of substance.

In test [1] the test system is S. aureus A798. It counts as cell-based, Staphylococcus aureus. The note with it: Staphylococcus aureus, A798; multiply-resistant strain (methicillin- and quinolone-resistant). A digest of the protocol: (§1)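 Broth microdilution in cation-adjusted Mueller-Hinton Broth per CLSI M7-A7; MICs in mg/L. S. aureus A798 is methicillin- and quinolone-resistant, K. pneumoniae T6474 penicillin-, cephalosporin- and quinolone-resistant; E. coli ATCC25922 and P. aeruginosa ATCC 27853 are quinolone-sensitive.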

The subject of test [2] is P. aeruginosa ATCC 27853. It counts as cell-based, Pseudomonas aeruginosa. The note with it: Pseudomonas aeruginosa, ATCC27853; quinolone-sensitive strain. A digest of the protocol:
as §1

The test system of test [3] is K. pneumoniae T6474. It counts as cell-based, Klebsiella pneumoniae. The note with it: Klebsiella pneumoniae, T6474; multiply-resistant strain (penicillin-, cephalosporin- and quinolone-resistant). A digest of the protocol: as §1
For test [4], the system named is E. coli ATCC25922. It counts as cell-based. The note with it: Escherichia coli, ATCC25922; quinolone-sensitive strain. Put shortly: as §1

Converted amounts (≈) assume the structure as drawn.

In the case of `NCCOc1cccc(-c2cccc(CNCC[C@H]3CN(c4ccc5c(n4)NC(=O)CO5)C(=O)O3)c2)n1` [Example 8, 6-[(S)-5-(2-{3-[6-(2-amino-ethoxy)-pyridin-2-yl]-benzylamino}-ethyl)-2-oxo-oxazolidin-3-yl]-4H-pyrido[3,2-b][1,4]oxazin-3-one], the MIC was 0.25 µg/mL (≈ 0.495 µM) in test [1], 0.25 µg/mL (≈ 0.495 µM) in test [2], 1 µg/mL (≈ 1.98 µM) in test [3] and 0.5 µg/mL (≈ 0.991 µM) in test [4].
As to `CO[C@H]1CNC[C@H]1Oc1cccc(-c2cccc(CNCC[C@H]3CN(c4ccc5c(n4)NC(=O)CO5)C(=O)O3)c2)n1` (relative stereo) [Example $184, (3R*,4S*)-6-[(S)-5-(2-{3-[6-(4-methoxy-pyrrolidin-3-yloxy)-pyridin-2-yl]-benzylamino}-ethyl)-2-oxo-oxazolidin-3-yl]-4H-pyrido[3,2-b][1,4]oxazin-3-one], the MIC was found to be 8 µg/mL (≈ 14.3 µM) in test [1], 2 µg/mL (≈ 3.57 µM) in test [2], 8 µg/mL (≈ 14.3 µM) in test [3] and 4 µg/mL (≈ 7.14 µM) in test [4].
Regarding `NCCOc1cncc(-c2ccnc(CNCC[C@H]3CN(c4ccc5c(n4)NC(=O)CO5)C(=O)O3)c2)c1` [Example $159, 6-[(S)-5-(2-{[5-(2-amino-ethoxy)-[3,4′]bipyridinyl-2′-ylmethyl]-amino}-ethyl)-2-oxo-oxazolidin-3-yl]-4H-pyrido[3,2-b][1,4]oxazin-3-one], the MIC is 8 µg/mL (≈ 15.8 µM) in test [1], 4 µg/mL (≈ 7.91 µM) in test [2], 8 µg/mL (≈ 15.8 µM) in test [3] and 16 µg/mL (≈ 31.6 µM) in test [4].
`NCCOc1cncc(-c2cccc(CNCC[C@H]3CN(c4ccc5c(n4)NC(=O)CO5)C(=O)O3)c2)c1` [Example 11, 6-[(S)-5-(2-{3-[5-(2-amino-ethoxy)-pyridin-3-yl]-benzylamino}-ethyl)-2-oxo-oxazolidin-3-yl]-4H-pyrido[3,2-b][1,4]oxazin-3-one]: the MIC turned out to be 2 µg/mL (≈ 3.96 µM) in test [1], 1 µg/mL (≈ 1.98 µM) in test [2], 4 µg/mL (≈ 7.93 µM) in test [3] and 2 µg/mL (≈ 3.96 µM) in test [4].
`O=C1COc2ccc(N3C[C@H](CCNCc4cccc(-c5cccc(OCCN6CCCC6)n5)c4)OC3=O)nc2N1` [Example 9, 6-[(S)-2-oxo-5-(2-{3-[6-(2-pyrrolidin-1-yl-ethoxy)-pyridin-2-yl]-benzylamino}-ethyl)-oxazolidin-3-yl]-4H-pyrido[3,2-b][1,4]oxazin-3-one]: the minimum inhibitory concentration (MIC) in test [1] amounted to 0.125 µg/mL (≈ 0.224 µM); in test [2], 2 µg/mL (≈ 3.58 µM); in test [3], 1 µg/mL (≈ 1.79 µM); in test [4], 2 µg/mL (≈ 3.58 µM).
In the case of `CN1CC[C@@H](COc2cccc(-c3cccc(CNCC[C@H]4CN(c5ccc6c(n5)NC(=O)CO6)C(=O)O4)c3)n2)C1` [Example $140, 6-[(S)-5-(2-{3-[6-((R)-1-methyl-pyrrolidin-3-ylmethoxy)-pyridin-2-yl]-benzylamino}-ethyl)-2-oxo-oxazolidin-3-yl]-4H-pyrido[3,2-b][1,4]oxazin-3-one], the MIC was 0.5 µg/mL (≈ 0.895 µM) in test [1], 2 µg/mL (≈ 3.58 µM) in test [2], 2 µg/mL (≈ 3.58 µM) in test [3] and 2 µg/mL (≈ 3.58 µM) in test [4].
Take `C[C@H]1NC[C@H]1Oc1cccc(-c2cccc(CNCC[C@H]3CN(c4ccc5c(n4)NC(=O)CO5)C(=O)O3)c2)n1` (mixture of isomers) [Example $135, 6-[(S)-5-(2-{3-[6-((2RS,3RS)-2-methyl-azetidin-3-yloxy)-pyridin-2-yl]-benzylamino}-ethyl)-2-oxo-oxazolidin-3-yl]-4H-pyrido[3,2-b][1,4]oxazin-3-one]: the MIC in test [1] was found to be 0.5 µg/mL; in test [2], 0.5 µg/mL; in test [3] it was 1 µg/mL; in test [4] it was 0.5 µg/mL.
With `COc1cc(O[C@H]2CCN(C)C2)nc(-c2cccc(CNCC[C@H]3CN(c4ccc5c(n4)NC(=O)CO5)C(=O)O3)c2)c1` [Example $136, 6-[(S)-5-(2-{3-[4-methoxy-6-((S)-1-methyl-pyrrolidin-3-yloxy)-pyridin-2-yl]-benzylamino}-ethyl)-2-oxo-oxazolidin-3-yl]-4H-pyrido[3,2-b][1,4]oxazin-3-one], the MIC stood at 0.25 µg/mL (≈ 0.435 µM) in test [1], 2 µg/mL (≈ 3.48 µM) in test [2], 2 µg/mL (≈ 3.48 µM) in test [3] and 1 µg/mL (≈ 1.74 µM) in test [4].
Regarding `O=C1COc2ccc(N3C[C@@H](CCNCc4cccc(-c5cccc(OC[C@@H]6CCN6)n5)c4)OC3=O)nc2N1` [Example $151, 6-[(R)-5-(2-{3-[6-((S)-1-azetidin-2-ylmethoxy)-pyridin-2-yl]-benzylamino}-ethyl)-2-oxo-oxazolidin-3-yl]-4H-pyrido[3,2-b][1,4]oxazin-3-one], the MIC in test [1] was determined as 4 µg/mL (≈ 7.54 µM); in test [2], 1 µg/mL (≈ 1.88 µM); in test [3] it was 2 µg/mL (≈ 3.77 µM); in test [4] it was 2 µg/mL (≈ 3.77 µM).
Take `NCCCCCOc1cccc(-c2cccc(CNCC[C@H]3CN(c4ccc5c(n4)NC(=O)CO5)C(=O)O3)c2)n1` [Example 20, 6-[(S)-5-(2-{3-[6-(5-amino-pentyloxy)-pyridin-2-yl]-benzylamino}-ethyl)-2-oxo-oxazolidin-3-yl]-4H-pyrido[3,2-b][1,4]oxazin-3-one]: the MIC in test [1] stood at 0.5 µg/mL (≈ 0.915 µM); in test [2], 2 µg/mL (≈ 3.66 µM); in test [3] it was 8 µg/mL (≈ 14.6 µM); in test [4], 2 µg/mL (≈ 3.66 µM).
Take `CN1CC[C@H](Oc2cccc(-c3cccc(CNCC[C@H]4CN(c5ccc6c(c5)NC(=O)CS6)C(=O)O4)c3)n2)C1` [Example $167, 6-[(S)-5-(2-{3-[6-((S)-1-methyl-pyrrolidin-3-yloxy)-pyridin-2-yl]-benzylamino}-ethyl)-2-oxo-oxazolidin-3-yl]-4H-benzo[1,4]thiazin-3-one]: the MIC came to 0.25 µg/mL (≈ 0.447 µM) in test [1], 1 µg/mL (≈ 1.79 µM) in test [2], 1 µg/mL (≈ 1.79 µM) in test [3] and 1 µg/mL (≈ 1.79 µM) in test [4].
As for `O=C1COc2ccc(N3C[C@H](CCNCc4cccc(-c5cccc(OCC6CNC6)n5)c4)OC3=O)nc2N1` [Example $106, 6-[(S)-5-(2-{3-[6-(azetidin-3-ylmethoxy)-pyridin-2-yl]-benzylamino}-ethyl)-2-oxo-oxazolidin-3-yl]-4H-pyrido[3,2-b][1,4]oxazin-3-one], the MIC was found to be 2 µg/mL (≈ 3.77 µM) in test [1], 1 µg/mL (≈ 1.88 µM) in test [2], 4 µg/mL (≈ 7.54 µM) in test [3] and 2 µg/mL (≈ 3.77 µM) in test [4].
Consider `NCCN(CCN)CCOc1cccc(-c2cccc(CNCC[C@H]3CN(c4ccc5c(n4)NC(=O)CO5)C(=O)O3)c2)c1` [Example $155, 6-((S)-5-{2-[(3′-{2-[bis-(2-amino-ethyl)-amino]-ethoxy}-biphenyl-3-ylmethyl)-amino]-ethyl}-2-oxo-oxazolidin-3-yl)-4H-pyrido[3,2-b][1,4]oxazin-3-one], for which the MIC in test [1] is 1 µg/mL (≈ 1.7 µM); in test [2], 2 µg/mL (≈ 3.39 µM); in test [3], 16 µg/mL (≈ 27.1 µM); in test [4], 2 µg/mL (≈ 3.39 µM).
For the compound `CNCCOc1cccc(-c2cccc(CNCC[C@H]3CN(c4ccc5c(n4)NC(=O)CO5)C(=O)O3)c2)n1` [Example $163, 6-[(S)-5-(2-{3-[6-(2-methylamino-ethoxy)-pyridin-2-yl]-benzylamino}-ethyl)-2-oxo-oxazolidin-3-yl]-4H-pyrido[3,2-b][1,4]oxazin-3-one], the MIC in test [1] was 0.5 µg/mL (≈ 0.964 µM); in test [2] it was 0.5 µg/mL (≈ 0.964 µM); in test [3], 2 µg/mL (≈ 3.86 µM); in test [4] it was 0.5 µg/mL (≈ 0.964 µM).
In the case of `CN1CC[C@@H](Oc2cnnc(-c3cccc(CNCC[C@H]4CN(c5ccc6c(n5)NC(=O)CO6)C(=O)O4)c3)c2)C1` [Example $166, 6-[(S)-5-(2-{3-[5-((R)-1-methyl-pyrrolidin-3-yloxy)-pyridazin-3-yl]-benzylamino}-ethyl)-2-oxo-oxazolidin-3-yl]-4H-pyrido[3,2-b][1,4]oxazin-3-one], the MIC was 4 µg/mL (≈ 7.33 µM) in test [1], 4 µg/mL (≈ 7.33 µM) in test [2], 4 µg/mL (≈ 7.33 µM) in test [3] and 2 µg/mL (≈ 3.67 µM) in test [4].
Turning to `O=C1COc2ccc(N3C[C@H](CCNCc4cccc(-c5cccc(OC6CCNC6)c5)c4)OC3=O)nc2N1` (mixture of isomers) [Example $103, 6-[(S)-2-oxo-5-(2-{[3′-((RS)-pyrrolidin-3-yloxy)-biphenyl-3-ylmethyl]-amino}-ethyl)-oxazolidin-3-yl]-4H-pyrido[3,2-b][1,4]oxazin-3-one], the MIC in test [1] is 2 µg/mL; in test [2], 1 µg/mL; in test [3] it was 1 µg/mL; in test [4], 1 µg/mL.
Take `CN1CC(Oc2cncc(-c3cc(CNCC[C@H]4CN(c5ccc6c(n5)NC(=O)CO6)C(=O)O4)ccn3)n2)C1` [Example $189, 6-{(S)-5-[2-({2-[6-(1-methyl-azetidin-3-yloxy)-pyrazin-2-yl]-pyridin-4-ylmethyl}-amino)-ethyl]-2-oxo-oxazolidin-3-yl}-4H-pyrido[3,2-b][1,4]oxazin-3-one]: the MIC in test [1] was 0.25 µg/mL (≈ 0.469 µM); in test [2] it was 2 µg/mL (≈ 3.76 µM); in test [3], 1 µg/mL (≈ 1.88 µM); in test [4], 1 µg/mL (≈ 1.88 µM).
In the case of `CN1CC(Oc2cccc(-c3ccnc(CNCC[C@H]4CN(c5ccc6c(n5)NC(=O)CO6)C(=O)O4)c3)n2)C1` [Example $186, 6-[(S)-5-(2-{[6-(1-methyl-azetidin-3-yloxy)-[2,4′]bipyridinyl-2′-ylmethyl]-amino}-ethyl)-2-oxo-oxazolidin-3-yl]-4H-pyrido[3,2-b][1,4]oxazin-3-one], the MIC turned out to be 0.25 µg/mL (≈ 0.47 µM) in test [1], 0.5 µg/mL (≈ 0.941 µM) in test [2], 1 µg/mL (≈ 1.88 µM) in test [3] and 0.5 µg/mL (≈ 0.941 µM) in test [4].
For the compound `C[C@@H]1CNC[C@H]1Oc1cccc(-c2cccc(CNCC[C@H]3CN(c4ccc5c(n4)NC(=O)CO5)C(=O)O3)c2)n1` (relative stereo) [Example $173, 6-[(S)-5-(2-{3-[6-((3S*,4R*)-4-methyl-pyrrolidin-3-yloxy)-pyridin-2-yl]-benzylamino}-ethyl)-2-oxo-oxazolidin-3-yl]-4H-pyrido[3,2-b][1,4]oxazin-3-one], the MIC in test [1] turned out to be 0.5 µg/mL (≈ 0.918 µM); in test [2], 1 µg/mL (≈ 1.84 µM); in test [3], 2 µg/mL (≈ 3.67 µM); in test [4], 1 µg/mL (≈ 1.84 µM).
